Values after ≈ are worked out from the molar mass of the structure shown. Active and inactive are the calls of the source. The calls are words filed in the database; no cut-off is given here.
Legend:
[1] = Metabolic stability in human assessed as half life; type: ADME
[2] = target: Voltage-gated inwardly rectifying potassium channel KCNH2 (Homo sapiens, UniProt Q12809); experiment: Inhibition of human ERG; type: toxicity
[3] = Plasma protein binding in rat assessed as bound fraction; type: ADME, cell-free; details: read-out: PPB (converted)
[4] = target: T1, Cytochrome P450 1A2 (Homo sapiens, UniProt P05177); experiment: Inhibition of CYP1A2 (unknown origin); type: ADME
T1 sequence (P05177 whole entry): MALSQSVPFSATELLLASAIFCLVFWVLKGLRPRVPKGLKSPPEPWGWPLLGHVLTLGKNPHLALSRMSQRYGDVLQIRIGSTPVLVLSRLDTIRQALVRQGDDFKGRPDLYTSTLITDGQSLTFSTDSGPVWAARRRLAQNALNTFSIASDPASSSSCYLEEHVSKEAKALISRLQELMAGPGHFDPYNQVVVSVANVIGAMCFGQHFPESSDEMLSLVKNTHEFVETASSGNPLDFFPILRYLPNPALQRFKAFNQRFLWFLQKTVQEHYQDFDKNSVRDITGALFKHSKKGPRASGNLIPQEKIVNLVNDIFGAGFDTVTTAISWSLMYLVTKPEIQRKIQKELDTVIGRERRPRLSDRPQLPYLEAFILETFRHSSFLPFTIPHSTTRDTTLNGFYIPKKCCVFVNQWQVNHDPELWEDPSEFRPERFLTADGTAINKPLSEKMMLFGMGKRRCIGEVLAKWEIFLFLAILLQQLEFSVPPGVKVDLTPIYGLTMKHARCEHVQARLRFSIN

[5] = target: Cytochrome P450 2C19 (Homo sapiens, UniProt P33261); experiment: Inhibition of CYP2C19 (unknown origin); type: ADME
Cytochrome P450 2C19, sequence (P33261 whole entry): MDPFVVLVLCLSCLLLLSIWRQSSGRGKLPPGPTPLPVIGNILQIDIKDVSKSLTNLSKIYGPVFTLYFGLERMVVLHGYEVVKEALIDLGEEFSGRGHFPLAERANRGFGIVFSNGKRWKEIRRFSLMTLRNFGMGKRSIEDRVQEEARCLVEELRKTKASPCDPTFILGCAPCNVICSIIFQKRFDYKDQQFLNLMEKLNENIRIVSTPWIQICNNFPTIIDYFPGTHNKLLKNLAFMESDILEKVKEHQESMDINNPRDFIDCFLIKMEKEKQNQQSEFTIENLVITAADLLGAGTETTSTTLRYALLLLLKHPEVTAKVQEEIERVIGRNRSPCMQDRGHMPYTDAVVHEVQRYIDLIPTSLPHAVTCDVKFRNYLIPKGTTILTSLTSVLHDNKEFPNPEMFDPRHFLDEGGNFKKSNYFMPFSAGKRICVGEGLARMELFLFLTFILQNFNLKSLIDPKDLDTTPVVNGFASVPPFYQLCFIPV

[6] = target: Cytochrome P450 3A4 (Homo sapiens, UniProt P08684); experiment: Inhibition of CYP3A4 (unknown origin); type: ADME
Cytochrome P450 3A4, sequence (P08684 whole entry): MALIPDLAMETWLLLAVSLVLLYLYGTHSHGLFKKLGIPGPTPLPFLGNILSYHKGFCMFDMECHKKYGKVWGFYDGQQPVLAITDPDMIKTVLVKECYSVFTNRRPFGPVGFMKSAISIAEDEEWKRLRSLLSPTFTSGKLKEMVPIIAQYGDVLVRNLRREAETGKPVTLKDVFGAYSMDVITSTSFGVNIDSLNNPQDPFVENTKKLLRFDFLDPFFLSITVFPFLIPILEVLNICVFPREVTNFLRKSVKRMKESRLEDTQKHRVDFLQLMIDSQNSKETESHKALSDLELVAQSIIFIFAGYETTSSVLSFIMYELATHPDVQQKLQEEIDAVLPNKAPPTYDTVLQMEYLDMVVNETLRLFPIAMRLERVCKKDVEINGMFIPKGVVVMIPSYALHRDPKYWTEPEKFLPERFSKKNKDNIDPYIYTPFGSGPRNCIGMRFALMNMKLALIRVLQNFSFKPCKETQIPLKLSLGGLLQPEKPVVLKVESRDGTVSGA

[7] = Plasma protein binding in human assessed as bound fraction; type: ADME, cell-free; details: read-out: PPB (converted)
[8] = target: T2, Cytochrome P450 2C8 (Homo sapiens, UniProt P10632); experiment: Inhibition of CYP2C8 (unknown origin); type: ADME
T2 sequence (P10632 whole entry): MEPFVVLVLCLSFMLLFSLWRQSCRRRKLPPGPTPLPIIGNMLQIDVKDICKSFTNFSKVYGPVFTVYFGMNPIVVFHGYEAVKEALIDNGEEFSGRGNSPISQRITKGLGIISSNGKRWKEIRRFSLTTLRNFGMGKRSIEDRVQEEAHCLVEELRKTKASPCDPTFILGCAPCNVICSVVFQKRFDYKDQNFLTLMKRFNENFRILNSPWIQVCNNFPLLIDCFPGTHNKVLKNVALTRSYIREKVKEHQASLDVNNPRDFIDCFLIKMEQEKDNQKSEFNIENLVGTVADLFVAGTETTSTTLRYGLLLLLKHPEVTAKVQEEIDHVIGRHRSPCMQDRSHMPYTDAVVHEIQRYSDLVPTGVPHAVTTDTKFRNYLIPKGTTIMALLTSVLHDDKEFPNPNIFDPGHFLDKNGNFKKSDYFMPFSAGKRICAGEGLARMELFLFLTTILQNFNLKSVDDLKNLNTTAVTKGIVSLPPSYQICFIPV

[9] = target: Cytochrome P450 2D6 (Homo sapiens, UniProt P10635); experiment: Inhibition of CYP2D6 (unknown origin); type: ADME
Cytochrome P450 2D6, sequence (P10635 whole entry): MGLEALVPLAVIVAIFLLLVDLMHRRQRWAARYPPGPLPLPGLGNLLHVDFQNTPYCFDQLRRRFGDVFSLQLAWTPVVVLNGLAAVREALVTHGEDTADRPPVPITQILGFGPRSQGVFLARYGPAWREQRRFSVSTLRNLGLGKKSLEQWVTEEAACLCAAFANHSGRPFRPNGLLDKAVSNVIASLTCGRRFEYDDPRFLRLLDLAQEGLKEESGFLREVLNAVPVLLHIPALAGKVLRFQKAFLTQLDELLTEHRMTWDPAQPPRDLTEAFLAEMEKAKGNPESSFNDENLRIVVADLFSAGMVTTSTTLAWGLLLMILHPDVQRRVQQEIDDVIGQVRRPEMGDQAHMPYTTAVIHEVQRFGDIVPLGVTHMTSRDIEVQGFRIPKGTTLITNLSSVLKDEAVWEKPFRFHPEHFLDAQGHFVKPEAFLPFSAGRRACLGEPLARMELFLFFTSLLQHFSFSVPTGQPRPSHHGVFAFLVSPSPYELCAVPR

[10] = Apparent permeability across apical to basolateral side in dog MDCK cells; type: ADME, cell-based, Canis lupus familiaris
[11] = target: T3, Cytochrome P450 2B6 (Homo sapiens, UniProt P20813); experiment: Inhibition of CYP2B6 (unknown origin); type: ADME
T3 sequence (P20813 whole entry): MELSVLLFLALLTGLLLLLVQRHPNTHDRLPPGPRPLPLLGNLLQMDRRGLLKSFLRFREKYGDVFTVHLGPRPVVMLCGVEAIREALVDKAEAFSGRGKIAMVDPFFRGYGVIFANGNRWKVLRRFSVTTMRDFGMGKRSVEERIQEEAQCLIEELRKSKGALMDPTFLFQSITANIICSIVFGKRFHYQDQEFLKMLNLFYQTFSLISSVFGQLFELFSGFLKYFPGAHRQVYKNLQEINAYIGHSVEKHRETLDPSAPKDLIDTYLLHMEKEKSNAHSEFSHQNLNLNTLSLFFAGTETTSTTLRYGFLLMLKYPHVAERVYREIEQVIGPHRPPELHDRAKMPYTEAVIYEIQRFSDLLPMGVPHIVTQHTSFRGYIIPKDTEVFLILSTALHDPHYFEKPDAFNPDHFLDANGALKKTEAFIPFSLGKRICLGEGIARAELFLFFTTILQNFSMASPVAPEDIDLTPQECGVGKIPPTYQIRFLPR

[12] = Cytotoxicity against African green monkey vero cells assessed as reduction in cell viability; type: toxicity, cell-based; details: chlorocebus sabaeus
[13] = test system: Mycobacterium tuberculosis; experiment: In vivo antimycobacterial activity against Mycobacterium tuberculosis Erdman infected mouse chronic tuberculosis infection model assessed as reduction log10 CFU at 10 to 100 mg/kg for 4 weeks at 5 days/week administered after 31 days post infection relative to control; type: functional; details: dose 10-100 mg/kg
[14] = Plasma protein binding in dog assessed as bound fraction; type: ADME, cell-free, Canis lupus familiaris; details: read-out: PPB (converted)
[15] = Metabolic stability in rat liver microsomes assessed as half life; type: ADME, Microsome
[16] = test system: Mycobacterium tuberculosis; experiment: Antimycobacterial activity against Mycobacterium tuberculosis H37Rv assessed as bacterial growth inhibition incubated for 10 days under hypoxic condition followed by 28 hrs incubation under normoxic condition by Low-Oxygen-Recovery Assay; type: functional; details: 264 h, time 11 day
[17] = test system: Mycobacterium tuberculosis; experiment: Antimycobacterial activity against clinical isolate drug susceptible Mycobacterium tuberculosis H37Rv assessed as bacterial growth inhibition; type: functional
[18] = Metabolic stability in mouse liver microsomes assessed as half life; type: ADME, Microsome
[19] = target: Cytochrome P450 2C9 (Homo sapiens, UniProt P11712); experiment: Inhibition of CYP2C9 (unknown origin); type: ADME
[20] = test system: Mycobacterium tuberculosis; experiment: Antimycobacterial activity against Mycobacterium tuberculosis Erdman assessed as bacterial growth inhibition; type: functional
[21] = Plasma protein binding in mouse assessed as bound fraction; type: ADME, cell-free; details: read-out: PPB (converted)
[22] = test system: Mycobacterium tuberculosis; experiment: Antimycobacterial activity against Mycobacterium tuberculosis H37Rv assessed as bacterial growth inhibition incubated for 7 days by MABA assay; type: functional; details: 168 h, time 7 day
[23] = Metabolic stability in human liver microsomes assessed as half life; type: ADME, Microsome
[24] = test system: Mycobacterium tuberculosis; experiment: In vivo antimycobacterial activity against Mycobacterium tuberculosis Erdman infected mouse acute tuberculosis infection model assessed as reduction lung bacterial loads by measuring CFU at 10 to 100 mg/kg for 3 weeks at 5 days/week; type: functional, organism-based; details: dose 10-100 mg/kg, DDE = dose-dependent effect
[25] = test system: Mycobacterium tuberculosis; experiment: In vivo antimycobacterial activity against Mycobacterium tuberculosis Erdman infected mouse acute tuberculosis infection model assessed as reduction lung bacterial load by measuring CFU at 15 mg/kg for 3 weeks at 5 days/week; type: functional, organism-based
[26] = target: Sodium channel protein type 5 subunit alpha (Homo sapiens, UniProt Q14524); experiment: Inhibition of NaV 1.5 (unknown origin)
Sodium channel protein type 5 subunit alpha, sequence (Q14524 whole entry): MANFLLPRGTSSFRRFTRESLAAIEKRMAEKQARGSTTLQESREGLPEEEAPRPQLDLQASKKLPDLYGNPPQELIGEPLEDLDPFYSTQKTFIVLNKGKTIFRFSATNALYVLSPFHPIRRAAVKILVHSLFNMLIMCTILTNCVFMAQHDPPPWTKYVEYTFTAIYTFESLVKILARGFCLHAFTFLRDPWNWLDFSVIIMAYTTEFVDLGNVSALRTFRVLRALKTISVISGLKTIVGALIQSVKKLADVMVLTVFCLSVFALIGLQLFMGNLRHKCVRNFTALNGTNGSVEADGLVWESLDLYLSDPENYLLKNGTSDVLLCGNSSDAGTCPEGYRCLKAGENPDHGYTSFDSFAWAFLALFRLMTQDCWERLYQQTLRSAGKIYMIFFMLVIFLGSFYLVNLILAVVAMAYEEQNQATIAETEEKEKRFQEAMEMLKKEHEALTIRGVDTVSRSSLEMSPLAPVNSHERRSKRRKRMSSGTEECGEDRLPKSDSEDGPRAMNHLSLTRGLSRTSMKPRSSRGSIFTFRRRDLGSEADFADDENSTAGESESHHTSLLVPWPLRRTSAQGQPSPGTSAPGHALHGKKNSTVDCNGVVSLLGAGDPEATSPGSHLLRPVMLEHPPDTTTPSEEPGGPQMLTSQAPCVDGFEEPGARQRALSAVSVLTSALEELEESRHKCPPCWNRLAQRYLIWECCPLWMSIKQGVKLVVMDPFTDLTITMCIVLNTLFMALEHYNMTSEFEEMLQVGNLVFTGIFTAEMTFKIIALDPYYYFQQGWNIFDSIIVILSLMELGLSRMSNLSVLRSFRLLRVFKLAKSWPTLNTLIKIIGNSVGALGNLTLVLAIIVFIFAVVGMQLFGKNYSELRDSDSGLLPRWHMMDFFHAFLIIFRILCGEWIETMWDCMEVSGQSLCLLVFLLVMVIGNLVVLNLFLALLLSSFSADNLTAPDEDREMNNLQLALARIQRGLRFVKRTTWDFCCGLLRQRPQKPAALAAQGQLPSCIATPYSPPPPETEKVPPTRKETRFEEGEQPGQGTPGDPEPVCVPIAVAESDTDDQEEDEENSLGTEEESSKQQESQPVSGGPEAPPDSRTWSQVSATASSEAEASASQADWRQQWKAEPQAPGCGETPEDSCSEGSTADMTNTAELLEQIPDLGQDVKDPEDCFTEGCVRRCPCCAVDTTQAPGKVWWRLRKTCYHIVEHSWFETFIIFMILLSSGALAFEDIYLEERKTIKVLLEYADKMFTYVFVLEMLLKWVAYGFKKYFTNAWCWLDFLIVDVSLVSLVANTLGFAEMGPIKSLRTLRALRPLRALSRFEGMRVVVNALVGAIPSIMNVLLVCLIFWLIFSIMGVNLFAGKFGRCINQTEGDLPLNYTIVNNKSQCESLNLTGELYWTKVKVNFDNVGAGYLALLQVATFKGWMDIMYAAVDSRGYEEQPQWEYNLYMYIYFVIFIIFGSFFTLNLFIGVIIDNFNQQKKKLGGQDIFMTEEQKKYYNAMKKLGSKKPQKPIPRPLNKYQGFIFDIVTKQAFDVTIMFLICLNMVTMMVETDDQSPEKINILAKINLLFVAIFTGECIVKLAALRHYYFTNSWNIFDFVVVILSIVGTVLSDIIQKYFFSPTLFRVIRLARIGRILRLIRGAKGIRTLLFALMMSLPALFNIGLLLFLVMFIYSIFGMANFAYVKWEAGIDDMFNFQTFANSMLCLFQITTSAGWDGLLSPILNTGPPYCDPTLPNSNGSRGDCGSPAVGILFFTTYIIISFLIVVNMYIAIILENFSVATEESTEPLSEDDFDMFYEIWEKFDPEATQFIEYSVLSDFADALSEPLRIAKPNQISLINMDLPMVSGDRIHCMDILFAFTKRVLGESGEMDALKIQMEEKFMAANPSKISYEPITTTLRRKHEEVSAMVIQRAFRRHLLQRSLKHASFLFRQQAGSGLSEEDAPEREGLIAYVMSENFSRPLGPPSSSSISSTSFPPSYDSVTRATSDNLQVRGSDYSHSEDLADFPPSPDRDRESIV

[27] = AUC (0-last) in Sprague-Dawley rat at 4 mg/kg, po; type: ADME, organism-based; details: in vivo
[28] = Half life in Sprague-Dawley rat at 1 mg/kg, iv; type: ADME, organism-based; details: in vivo
[29] = Cmax in Beagle dog at 2 mg/kg, po; type: ADME, organism-based, Canis lupus familiaris; parameters: dose 2 mg/kg, route po; details: in vivo
[30] = target: Voltage-dependent L-type calcium channel subunit alpha-1C (Homo sapiens, UniProt Q13936); experiment: Inhibition of human Cav1.2
[31] = target: T4, A-type voltage-gated potassium channel KCND3 (Homo sapiens, UniProt Q9UK17); experiment: Inhibition of Kv4.3 (unknown origin)
T4 sequence (Q9UK17 whole entry): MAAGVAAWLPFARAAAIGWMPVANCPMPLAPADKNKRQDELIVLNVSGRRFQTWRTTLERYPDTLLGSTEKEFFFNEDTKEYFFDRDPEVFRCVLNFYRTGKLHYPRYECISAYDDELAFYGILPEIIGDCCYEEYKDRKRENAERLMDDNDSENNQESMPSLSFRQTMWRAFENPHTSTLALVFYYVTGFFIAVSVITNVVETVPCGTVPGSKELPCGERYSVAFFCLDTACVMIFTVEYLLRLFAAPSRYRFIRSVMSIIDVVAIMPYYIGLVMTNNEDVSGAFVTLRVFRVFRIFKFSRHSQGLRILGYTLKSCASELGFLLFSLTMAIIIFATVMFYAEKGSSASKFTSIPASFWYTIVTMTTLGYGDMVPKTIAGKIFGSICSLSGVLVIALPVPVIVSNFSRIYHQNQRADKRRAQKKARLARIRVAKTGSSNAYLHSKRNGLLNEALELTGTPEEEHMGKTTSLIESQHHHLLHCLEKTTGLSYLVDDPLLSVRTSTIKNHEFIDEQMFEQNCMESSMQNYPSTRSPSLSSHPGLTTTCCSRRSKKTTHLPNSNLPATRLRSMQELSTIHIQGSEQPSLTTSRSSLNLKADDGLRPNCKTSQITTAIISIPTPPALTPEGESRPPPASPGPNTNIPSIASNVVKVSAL

[32] = Half life in Beagle dog at 0.5 mg/kg, iv; type: ADME, organism-based, Canis lupus familiaris; details: in vivo
[33] = AUC (0-last) in Beagle dog at 2 mg/kg, po; type: ADME, organism-based, Canis lupus familiaris; details: in vivo
[34] = Cmax in Sprague-Dawley rat at 4 mg/kg, po; type: ADME, organism-based; parameters: dose 4 mg/kg, route po; details: in vivo

Voltage-gated inwardly rectifying potassium channel KCNH2, sequence (Q12809 whole entry): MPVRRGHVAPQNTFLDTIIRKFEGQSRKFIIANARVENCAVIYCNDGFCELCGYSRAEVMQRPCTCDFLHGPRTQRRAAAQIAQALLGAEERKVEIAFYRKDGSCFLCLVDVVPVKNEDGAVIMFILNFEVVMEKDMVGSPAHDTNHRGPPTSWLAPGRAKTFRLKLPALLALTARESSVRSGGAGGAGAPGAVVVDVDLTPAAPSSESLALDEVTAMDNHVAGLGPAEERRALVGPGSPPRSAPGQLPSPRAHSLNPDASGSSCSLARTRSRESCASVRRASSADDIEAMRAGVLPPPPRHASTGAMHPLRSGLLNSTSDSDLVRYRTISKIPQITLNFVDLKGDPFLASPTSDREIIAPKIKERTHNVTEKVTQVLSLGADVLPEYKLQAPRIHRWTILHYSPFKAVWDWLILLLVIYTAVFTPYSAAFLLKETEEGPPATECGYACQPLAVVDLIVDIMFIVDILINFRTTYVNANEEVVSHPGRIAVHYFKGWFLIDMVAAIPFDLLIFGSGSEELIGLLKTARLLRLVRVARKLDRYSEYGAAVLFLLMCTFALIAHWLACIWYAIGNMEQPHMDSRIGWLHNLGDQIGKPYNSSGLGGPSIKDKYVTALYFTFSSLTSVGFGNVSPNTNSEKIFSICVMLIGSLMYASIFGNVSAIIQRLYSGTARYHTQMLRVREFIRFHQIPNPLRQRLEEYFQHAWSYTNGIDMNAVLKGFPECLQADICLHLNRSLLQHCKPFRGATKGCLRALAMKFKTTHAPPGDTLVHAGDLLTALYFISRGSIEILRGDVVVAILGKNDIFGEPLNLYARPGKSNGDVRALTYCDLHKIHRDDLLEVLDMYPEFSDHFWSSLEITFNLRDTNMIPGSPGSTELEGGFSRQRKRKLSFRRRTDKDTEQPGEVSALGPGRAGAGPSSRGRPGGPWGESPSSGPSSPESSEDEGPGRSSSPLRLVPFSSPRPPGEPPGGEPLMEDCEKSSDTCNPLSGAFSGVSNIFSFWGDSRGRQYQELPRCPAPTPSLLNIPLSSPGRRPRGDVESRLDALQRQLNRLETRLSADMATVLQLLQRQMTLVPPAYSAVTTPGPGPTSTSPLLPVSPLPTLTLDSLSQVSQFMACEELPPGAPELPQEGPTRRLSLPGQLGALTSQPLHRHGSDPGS

SMILES: C[C@]1(COc2ccc(N3CCC(Oc4ccc(OC(F)(F)F)cc4)CC3)cc2)CN=C(N)O1 [DM-6705]
- half-life [1]: 122 h
- IC50 [2]: 0.082 µM

SMILES: C[C@]1(COc2ccc(N3CCC(Oc4ccc(OC(F)(F)F)cc4)CC3)cc2)Cn2cc([N+](=O)[O-])nc2O1
- fraction unbound [3]: 0.004
- IC50 [4]: > 100 µM
- IC50 [5]: > 100 µM
- IC50 [6]: > 100 µM
- fraction unbound [7]: 0.005
- IC50 [8]: > 100 µM
- IC50 [9]: > 100 µM
- Papp A→B [10]: 0.9 nm/s
- IC50 [11]: > 100 µM
- CC50 [12]: > 32 mg/L
- Activity [13]: 1 log10CFU
- fraction unbound [14]: 0.005
- half-life [15]: > 2.42 h
- IC50 [2]: > 30 µM
- MIC [16]: 0.61 mg/L (≈ 1.14 µM)
- MIC50 [17]: 0.002 mg/L (≈ 0.00374 µM)
- MIC90 [17]: 0.004 mg/L (≈ 0.00748 µM)
- half-life [18]: > 2.42 h
- IC50 [19]: > 100 µM
- MIC [20]: 0.015 mg/L (≈ 0.0281 µM)
- fraction unbound [21]: 0.005
- MIC [22]: 0.006 mg/L (≈ 0.0112 µM)
- half-life [23]: 1.4 h
- Activity [24]: Dde

SMILES: CO[C@H]1/C=C/O[C@@]2(C)Oc3c(C)c(O)c4c(O)c(c(/C=N/N5CCN(C)CC5)c(O)c4c3C2=O)NC(=O)/C(C)=C\C=C\[C@H](C)[C@H](O)[C@@H](C)[C@@H](O)[C@@H](C)[C@H](OC(C)=O)[C@@H]1C [RIFAMPIN]
- Activity [25]: Active
- MIC50 [17]: 0.035 mg/L (≈ 0.0425 µM)
- MIC90 [17]: 0.064 mg/L (≈ 0.0778 µM)

SMILES: C[C@]1(CN2Cc3nc(-c4ccc(F)cc4)sc3C2)Cn2cc([N+](=O)[O-])nc2O1
- IC50 [26]: 12.9 µM
- AUClast [27]: 574 ng·h
- half-life [28]: 4.65 h
- Cmax [29]: 0.00582 µM
- IC50 [30]: 13.3 µM
- IC50 [31]: > 40 µM
- half-life [32]: 15.3 h
- IC50 [2]: 1.69 µM
- AUClast [33]: 166 ng·h
- Cmax [34]: 0.0579 µM

From ChEMBL document CHEMBL5113463, “Discovery and preclinical evaluations of JBD0131, a novel nitrodihydro-imidazooxazole anti-tuberculosis agent” (Bioorg Med Chem Lett, 2022)
